What is called pEC50 is the EC50 on a negative log10 scale, so that one unit is a factor of ten.

pEC50: −log10 of the molar value. *1 amine or outer side, *2 acyl side, *3 side chain or, on linkers, in order; H or OH if unused. Where a SMILES comes first, the peptide text is derived from it. Side-chain parts run from the residue outwards. [ ]: non-standard residue; d: D form. The star is where a group is joined. C18 diacid = O=C(O)CCCCCCCCCCCCCCCCC(=O)*; γGlu = O=C(O)[C@H](CCC(=O)[*:2])N[*:1]; Desaminohistidyl = O=C(CCc1c[nH]cn1)*; AEEA = NCCOCCOCC(=O)O; Aib = CC(C)(N)C(=O)O

For this assay, the target named is T1, human GLP-1 receptor (Homo sapiens, UniProt P43220).
T1 construct: expressed in transfected cells; host or cells: membranes of BHK cells, parent line BHKTS13, clone FCW467-12A
T1 sequence (P43220 24-463): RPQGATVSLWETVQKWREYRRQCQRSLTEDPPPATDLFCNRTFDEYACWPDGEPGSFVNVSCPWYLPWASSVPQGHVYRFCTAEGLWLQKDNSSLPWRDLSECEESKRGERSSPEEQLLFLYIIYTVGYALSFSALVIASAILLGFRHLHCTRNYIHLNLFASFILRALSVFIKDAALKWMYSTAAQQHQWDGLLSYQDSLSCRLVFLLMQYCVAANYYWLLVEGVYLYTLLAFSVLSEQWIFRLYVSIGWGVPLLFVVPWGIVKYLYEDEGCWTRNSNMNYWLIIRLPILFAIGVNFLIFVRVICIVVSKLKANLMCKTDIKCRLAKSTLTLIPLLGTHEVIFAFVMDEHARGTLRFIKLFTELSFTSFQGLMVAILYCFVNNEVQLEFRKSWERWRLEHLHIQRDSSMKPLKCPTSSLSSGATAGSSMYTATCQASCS
The assay is described as follows: Assay (I)(a): GLP-1 receptor potency, CRE luciferase reporter gene assay in BHK cells. In kind it is cell-based. The settings on record: BHK cells expressing human GLP-1 receptor, read-out: EC50 GLP-1R. The procedure:
Assay (I): GLP-1 and Glucagon Receptor Potency The purpose of this example was to test the activity or potency, of the GLP-1 derivatives of the invention, in vitro. The in vitro potency is the measure of human GLP-1 receptor (GLP-1R) or glucagon receptor (glucagonR) activation, respectively, in a whole cell assay. In vitro potency was determined by measuring the cellular response of human GLP-1 or glucagon receptor activation, respectively, in a reporter gene assay. The assay was performed in a BHK cell line that stably expresses either the human GLP-1 receptor or the human glucagon receptor and comprises the DNA for the cAMP response element (CRE) coupled to a promoter and the gene for firefly luciferase (CRE luciferase). […] When assay incubation was completed, the luciferase substrate (luciferin) was added and the enzyme converted luciferin to oxyluciferin and produces bioluminescence. The luminescence was measured as the readout for the assay. (a) GLP-1 Receptor Activation The cells used in this assay (clone FCW467-12A/KZ10-1) were BHK cells with BHKTS13 as a parent cell line. The cells were derived from a clone (FCW467-12A) that expresses the human GLP-1 receptor and were established by further transfection with CRE luciferase to obtain the current clone. The cells were cultured at 5% CO2 in DMEM medium with 10% FBS, 1×GlutaMAX, 1 mg/ml G418, 240 nM MTX (methotrexate) and 1% pen/strep (penicillin/streptomycin). They were aliquoted and stored in liquid nitrogen. Before each assay, an aliquot was taken up and washed three times in PBS before being suspended at the desired concentration in assay medium. For 96-well plates the suspension was made to give a final concentration of 5×10EE3 cells/well. The following chemicals were used in the assay: Pluronic F-68 (10%) (Gibco 2404), Ovalbumin (Sigma A5503), DMEM w/o phenol red (Gibco 11880-028), 1 M Hepes (Gibco 15630), Glutamax 100× (Gibco 35050) and steadylite plus (PerkinElmer 6016757). Assay Medium consisted of DMEM w/o phenol red, 10 mM Hepes, 1×GlutaMAX, 2% Ovalbumin and 0.2% Pluronic F-68. Cell stocks were thawed in a 37° C. water bath. Cells were washed three times in PBS. The cells were counted and adjusted to 5×10EE3 cells/50 μl (1×10EE5 cells/ml) in Assay Medium. A 50 μl aliquot of cells was transferred to each well in the assay plate. Stocks of the test compounds and reference compounds were diluted to a concentration of […] in Assay Medium. Compounds were diluted 10-fold to give the following concentrations: 2×10EE-6 M, 2×10EE-7 M, 2×10EE-8 M; 2×10EE-9 M, 2×10EE-10 M, 2×10EE-11 M, 2×10EE-12 M and 2×10EE-13 M. For each compound a blank assay medium control was also included. A 50 μl aliquot of compound or blank was transferred from the dilution plate to the assay plate. Compounds were tested at the following final concentrations: 1×10EE-6 M, 1×10EE-7 M, 1×10EE-8 M; 1×10EE-9 M, 1×10EE-10 M, 1×10EE-11 M and 1×10EE-12 M and 1×10EE-13 M. The assay plate was incubated for 3 h in a 5% CO2 incubator at 37° C. The assay plate was removed from the incubator and allowed to stand at room temperature for 15 min. A 100 μl aliquot of steadylite plus reagent was added to each well of the assay plate (reagent is light sensitive). Each assay plate was covered with aluminum foil to protect it from light and shaken for 30 min at room temperature. Each assay plate was read in a Perkin Elmer TopCount NXT instrument. The data from the TopCount instrument was transferred to GraphPad Prism software. The software performed a non-linear regression (log(agonist) vs response-Variable slope (four parameter)). EC50 values were calculated by the software and reported in pM.
As for `CC[C@H](C)[C@H](NC(=O)[C@H](Cc1ccccc1)NC(=O)[C@H](CCCCNC(=O)COCCOCCNC(=O)COCCOCCNC(=O)CC[C@H](NC(=O)CC[C@H](NC(=O)CC[C@H](NC(=O)CCCCCCCCCCCCCCCCC(=O)O)C(=O)O)C(=O)O)C(=O)O)NC(=O)[C@H](CCCNC(=N)N)NC(=O)[C@H](C)NC(=O)[C@H](C)NC(=O)[C@H](CCC(N)=O)NC(=O)[C@H](CCC(=O)O)NC(=O)[C@H](CCC(=O)O)NC(=O)[C@H](CC(C)C)NC(=O)[C@H](Cc1ccc(O)cc1)NC(=O)[C@H](CCCNC(=N)N)NC(=O)[C@H](CO)NC(=O)[C@@H](NC(=O)[C@H](CC(=O)O)NC(=O)[C@H](CO)NC(=O)[C@@H](NC(=O)[C@H](Cc1ccccc1)NC(=O)[C@@H](NC(=O)CNC(=O)[C@H](Cc1c[nH]cn1)NC(=O)[C@H](C)NC(=O)CCc1c[nH]cn1)[C@@H](C)O)[C@@H](C)O)C(C)C)C(=O)N[C@@H](C)C(=O)N[C@@H](Cc1c[nH]c2ccccc12)C(=O)N[C@@H](CC(C)C)C(=O)N[C@@H](CC(C)C)C(=O)N[C@@H](CCCNC(=N)N)C(=O)O` [Example 18, N^ε27-[2-[2-[2-[[2-[2-[2-[[(4S)-4-carboxy-4-[[(4S)-4-carboxy-4-[[(4S)-4-carboxy-4-(17-carboxyheptadecanoylamino)butanoyl]amino]butanoyl]amino]butanoyl]amino]ethoxy]ethoxy]acetyl]amino]ethoxy]ethoxy]acetyl]-[Imp7,His9,Arg18,Glu22,Arg26,Lys27,Leu33,Arg34]-GLP-1-(7-34)-peptide] (Desaminohistidyl-AHGTFTSDVSRYLEEQAARK([AEEA-AEEA-γGlu-γGlu-γGlu-C18 diacid])FIAWLLR-OH), the pEC50 is 11.10.
With `CC[C@H](C)[C@H](NC(=O)[C@H](Cc1ccccc1)NC(=O)[C@H](CCC(=O)O)NC(=O)[C@H](CCCNC(=N)N)NC(=O)[C@H](C)NC(=O)[C@H](C)NC(=O)[C@H](CCC(N)=O)NC(=O)[C@H](C)NC(=O)[C@H](CCC(=O)O)NC(=O)[C@H](CC(C)C)NC(=O)[C@H](Cc1ccc(O)cc1)NC(=O)[C@H](CCCCN)NC(=O)[C@H](CO)NC(=O)[C@@H](NC(=O)[C@H](CC(=O)O)NC(=O)[C@H](CO)NC(=O)[C@@H](NC(=O)[C@H](Cc1ccccc1)NC(=O)[C@@H](NC(=O)CNC(=O)[C@H](Cc1c[nH]cn1)NC(=O)C(C)(C)NC(=O)CCc1c[nH]cn1)[C@@H](C)O)[C@@H](C)O)C(C)C)C(=O)N[C@@H](C)C(=O)N[C@@H](Cc1c[nH]c2ccccc12)C(=O)N[C@@H](CC(C)C)C(=O)N[C@@H](CC(C)C)C(=O)N[C@@H](CCCCNC(=O)CC[C@H](NC(=O)CC[C@H](NC(=O)COCCOCCNC(=O)CC[C@H](NC(=O)CC[C@H](NC(=O)CCCCCCCCCCCCCCCCC(=O)O)C(=O)O)C(=O)O)C(=O)O)C(=O)O)C(=O)N[C@H](C(N)=O)[C@@H](C)O` [Example 34, N^ε34-[(4S)-4-carboxy-4-[[(4S)-4-carboxy-4-[[2-[2-[2-[[(4S)-4-carboxy-4-[[(4S)-4-carboxy-4-(17-carboxyheptadecanoylamino)butanoyl]amino]butanoyl]amino]ethoxy]ethoxy]acetyl]amino]butanoyl]amino]butanoyl]-[Imp7,Aib8,His9,Lys18,Ala22,Arg26,Leu33,Thr35]-GLP-1-(7-35)-peptide amide] (Desaminohistidyl-[Aib]HGTFTSDVSKYLEAQAAREFIAWLLK([γGlu-γGlu-AEEA-γGlu-γGlu-C18 diacid])T-NH2) the figure was 11.52; with `CC[C@H](C)[C@H](NC(=O)[C@H](Cc1ccccc1)NC(=O)[C@H](CCC(=O)O)NC(=O)[C@H](CCCNC(=N)N)NC(=O)[C@H](C)NC(=O)[C@H](C)NC(=O)[C@H](CCCNC(=N)N)NC(=O)CNC(=O)[C@H](CCC(=O)O)NC(=O)[C@H](CC(C)C)NC(=O)[C@H](Cc1ccc(O)cc1)NC(=O)[C@H](CCCNC(=N)N)NC(=O)[C@H](CO)NC(=O)[C@@H](NC(=O)[C@H](CC(=O)O)NC(=O)[C@H](CO)NC(=O)[C@@H](NC(=O)[C@H](Cc1ccccc1)NC(=O)[C@@H](NC(=O)CNC(=O)[C@H](Cc1c[nH]cn1)NC(=O)C(C)(C)NC(=O)CCc1c[nH]cn1)[C@@H](C)O)[C@@H](C)O)C(C)C)C(=O)N[C@@H](C)C(=O)N[C@@H](Cc1c[nH]c2ccccc12)C(=O)N[C@@H](CC(C)C)C(=O)N[C@@H](CC(C)C)C(=O)N[C@@H](CCCCNC(=O)CC[C@H](NC(=O)CC[C@H](NC(=O)COCCOCCNC(=O)CC[C@H](NC(=O)CC[C@H](NC(=O)CCCCCCCCCCCCCCCCC(=O)O)C(=O)O)C(=O)O)C(=O)O)C(=O)O)C(=O)NCC(=O)N[C@@H](CO)C(=O)NCC(=O)O` [Example 36, N^ε34-[(4S)-4-carboxy-4-[[(4S)-4-carboxy-4-[[2-[2-[2-[[(4S)-4-carboxy-4-[[(4S)-4-carboxy-4-(17-carboxyheptadecanoylamino)butanoyl]amino]butanoyl]amino]ethoxy]ethoxy]acetyl]amino]butanoyl]amino]butanoyl]-[Imp7,Aib8,His9,Arg18,Arg23,Arg26,Leu33,Ser36]-GLP-1-(7-37)-peptide] (Desaminohistidyl-[Aib]HGTFTSDVSRYLEGRAAREFIAWLLK([γGlu-γGlu-AEEA-γGlu-γGlu-C18 diacid])GSG-OH), 11.22.

These data come from US9988430B2, “Stable GLP-1 based GLP-1/glucagon receptor co-agonists” (Novo Nordisk A/S, priority 2014, dated 2018).
